This is an account of results in US20240197729A1, “ALK-5 Inhibitors and Uses Thereof” (Sumitomo Pharma Oncology, Inc., priority 2021, published 2024).

As usually defined, the IC50 is the concentration that inhibits the measured activity by half.

One data set relates to athymic nude mice. The following applies: mouse, in vivo; for therapeutic index: female, athymic nude (NCRNU), 5 days; for MTD / tolerability, acute MTD study: po. How it is done: . Evaluation of the acute and chronic maximum tolerated dose (MTD) for Compound 04 and Compound 01 was carried out by oral gavage administration of each compound to athymic nude mice according to the following procedure.
Five weeks-old female athymic nude mice (NCRNU) were purchased from Taconic Biosciences, Rensselaer NY, and acclimated for one week. Mice were approximately […] when enrolled in the study. All compounds were resuspended in 1-methyl-2-pyrrolidinone (Sigma, 494496) (10% v/v) plus 20% Solutol (Sigma 42966) in water (90% v/v). Mice were randomized according to the baseline weight (Day 1) at the beginning of the acute and chronic MTD studies.
For the acute MTD study, mice were administered three escalating doses of each compound every other day (two animals per group). Mice were dosed by oral gavage with one hundred milligrams per kilogram on day one, five hundred milligrams per kilogram on day three, and one thousand milligrams per kilogram on day five. Body weight was measured every day, and the percent body weight change was calculated.
For the chronic MTD study, three groups, with three mice per group were dosed daily for five consecutive days, at one hundred, three hundred, or one thousand milligrams per kilogram of Compound 04 or Compound 01, and observed for five consecutive days post-dosing during recovery. Body weight was measured, and clinical observations were recorded daily for ten consecutive days. A vehicle only treatment group of three mice was included to evaluate potential toxicity of the vehicle. The percent body weight change for each day was calculated based on Day 1 measurements.

Data set [1] concerns SMAD signaling triggered by myostatin. Nature of the data set: Myostatin-triggered SMAD signaling in RDSR cells. It is filed as cell-based. The following applies: Homo sapiens, 50 ng/ml myostatin, 24 h. How it is done:
To determine the ability of compounds to inhibit the SMAD signaling triggered by myostatin, and therefore possibly help alleviate cachexia in cancer patients, the following assay was performed. The RD cell line, a human rhabdomyosarcoma cell line, was purchased from ATCC (CCL-136) and a stably SMAD reporter plasmid (Promega, pGL4.48[luc2P/SBE/Hygro]) was introduced to create the RD SMAD Reporter (RDSR) cell line. Twenty thousand RDSR cells were seeded into a 96-well plate (Greiner bio-one 655083) in DMEM media supplemented with 10% fetal bovine serum. Cells were pre-incubated with selected compounds at various concentrations (8-point curve ranging from 10 micromolar to 610 picomolar) for one hour, then were stimulated with 50 nanograms per milliliter myostatin (R&D, 788-G8-010) for twenty-four hours. The luciferase signal was then read out with One-Glo substrate on the Envision plate reader.

Data set [2] concerns TGF-β-induced pan-collagen expression. In words: In vitro 3D liver fibrosis assay (HepaRG NP 3D model). Format: cell-based. Conditions: 1 μM, 100 ng/mL TGF-β1, 72 hours. As for the experimental part: An additional fibrosis assay was carried out with selected compounds using the Visikol OpenLiver™ HepaRG™ NP 3D model directed at fibrosis. The OpenLiver™ HepaRG™ NP 3D model features the ability to recapitulate a number of liver disease pathologies. Whether evaluating the disease-inducing liability of a compound or exploring targets to exploit for therapeutic amelioration of disease state, the HepaRG™ NP 3D model is capable of recapitulating disease features such hepatocellular lipid accumulation, nonparenchymal cell phenotype shift, and collagen matrix deposition.
HepaRGs (Lonza, NSHPRG, Lot #HNS1013) and non-parenchymal (NP) cells (Stellates, Kupffers and LSECS (Lonza, Lot HUM201221)) were thawed, assessed for viability and seeded at a hepatocyte to NP cell ratio of 60:40 into an ultra-low attachment round-bottom plate (Corning, 4515). The cells were initially cultured in William's E medium supplemented with HepaRG Thaw, Plate & General Purpose Supplement (Thermo Fisher, HPRG770) and GlutaMax (Thermo Fisher, 35050061) overnight. The next day the medium was half exchanged with William's E medium supplemented with HepaRG Maintenance Supplement (Thermo Fisher, HPRG720) and GlutaMax (Thermo Fisher, 35050061). […]
Clearing the spheroid with Visikol HISTO-M™ allows for clear images throughout the spheroid volume, therefore allowing the entire z-stack to be analyzed. […]

`Cc1nn(CC(F)(F)F)cc1Nc1cc(Nc2cnnc3c(C)cccc23)ccn1` [Compound 01, N2-[3-methyl-1-(2,2,2-trifluoroethyl)-1H-pyrazol-4-yl]-N4-(8-methylcinnolin-4-yl)pyridine-2,4-diamine]: in the data set with athymic nude mice, the therapeutic index result is given as “less than 4 ×”; the MTD result is “less than three hundred”; the “tolerability, acute MTD study” value is listed as “well tolerated in mice at one thousand milligrams per kilogram with single dose administration”. Moreover, the IC50 in data set [1] turned out to be 57.1 nM. Besides, the TGF-β-induced pan-collagen expression entry in data set [2] is “inhibited TGF-β-induced pan-collagen expression”.
Turning to `Cc1cccc(-c2[nH]c(CNc3ccccc3F)nc2-c2ccc3ncnn3c2)n1` [Vactosertib, vactosertib, reference compound], in data set [1], the IC50 came to 16.4 nM.
Take `Clc1cccc2c(Nc3ccnc(Nc4cccc(N5CCOCC5)c4)c3)cnnc12` [Compound 04, N4-(8-chlorocinnolin-4-yl)-N2-[3-(morpholin-4-yl)phenyl]pyridine-2,4-diamine]: in the data set with athymic nude mice, the therapeutic index amounted to 6 ×; the MTD result is “three hundred”; the “tolerability, acute MTD study” value was “well tolerated in mice at one thousand milligrams per kilogram with single dose administration”. The IC50 in data set [1] turned out to be 19.1 nM. In data set [2], the TGF-β-induced pan-collagen expression result is reported as “inhibited TGF-β-induced pan-collagen expression”.
